# Data from article PMC4256349, “A Conformational Sampling Model for Radical Catalysis in Pyridoxal Phosphate- and Cobalamin-dependent Enzymes” (The Journal of Biological Chemistry, 2014).
# Columns and labels:
# [1] = target: T1, ornithine 4,5-aminomutase (OAM) (Acetoanaerobium sticklandii, UniProt E3PY95); parameters: gene oraE; conditions: anaerobic, pH 8.5, 25 °C; equimolar with apoenzyme; covalent (Lys629)
# T1 sequence (E3PY95 1-740): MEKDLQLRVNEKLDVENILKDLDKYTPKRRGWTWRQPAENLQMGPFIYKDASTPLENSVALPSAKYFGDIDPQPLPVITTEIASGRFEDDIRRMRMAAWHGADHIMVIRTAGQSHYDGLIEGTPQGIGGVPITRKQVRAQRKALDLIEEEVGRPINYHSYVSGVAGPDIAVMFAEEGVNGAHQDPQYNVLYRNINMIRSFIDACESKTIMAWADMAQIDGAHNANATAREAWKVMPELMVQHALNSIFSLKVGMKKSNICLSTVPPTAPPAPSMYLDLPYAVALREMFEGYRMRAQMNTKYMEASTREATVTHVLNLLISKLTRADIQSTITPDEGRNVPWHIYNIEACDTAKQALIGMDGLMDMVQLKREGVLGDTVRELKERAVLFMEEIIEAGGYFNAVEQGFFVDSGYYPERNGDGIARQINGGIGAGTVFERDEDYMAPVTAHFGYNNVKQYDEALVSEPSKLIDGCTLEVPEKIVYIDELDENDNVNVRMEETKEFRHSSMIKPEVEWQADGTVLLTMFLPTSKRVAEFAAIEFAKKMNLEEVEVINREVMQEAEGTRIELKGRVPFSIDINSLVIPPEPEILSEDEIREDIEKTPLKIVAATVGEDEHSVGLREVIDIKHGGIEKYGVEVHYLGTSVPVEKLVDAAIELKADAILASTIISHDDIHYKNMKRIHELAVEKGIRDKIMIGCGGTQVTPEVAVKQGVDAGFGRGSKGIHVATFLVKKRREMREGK
# T1 sequence (E3PY96 1-121 partner): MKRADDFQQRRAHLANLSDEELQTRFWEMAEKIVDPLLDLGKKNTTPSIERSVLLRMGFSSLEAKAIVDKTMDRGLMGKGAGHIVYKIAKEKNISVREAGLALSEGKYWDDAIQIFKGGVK
# [2] = target: T1, ornithine 4,5-aminomutase (OAM); assay: UV-visible spectra, external aldimine formation; format: binding; parameters: gene oraE; C-terminal His6 (pET-OAMH2), expressed in E. coli; purified apoenzyme reconstituted with PLP and AdoCbl; OAM dimer printed (alpha2beta2 known); conditions: aerobic, pH 8.5, 25 °C, 5 mM; inhibitor, covalent (PLP external aldimine)
# [3] = target: T1, ornithine 4,5-aminomutase (OAM); assay: UV-visible, stopped flow and EPR; external aldimine and Co-C homolysis; format: binding; parameters: gene oraE; C-terminal His6 (pET-OAMH2), expressed in E. coli; purified apoenzyme reconstituted with PLP and AdoCbl; OAM dimer printed (alpha2beta2 known); conditions: anaerobic, pH 8.5, 25 °C, 2.5 mM; inhibitor, covalent (PLP external aldimine)
smiles,measurement,setting,value
Cc1ncc(COP(=O)(O)O)c(C=O)c1O [PLP],"UV-visible spectra, transimination at 416 nm",[1],transimination induced by the D-ornithine binding with PLP
"NCC(N)C(=O)O (racemic) [DL-2,3-diaminopropanoic acid]","UV-visible spectra, external aldimine formation",[2],does not induce AdoCbl bond homolysis but does lead to external aldimine formation
"NCCC(N)C(=O)O (racemic) [DL-2,4-diaminobutyric acid]","UV-visible, stopped flow and EPR; external aldimine and Co-C homolysis",[3],transimination induced by the DAB binding with PLP
